# Assay results: PubChem BioAssay (NCI)
#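 Grown in 96-well plates, cells were treated for 48 hours with each compound at five concentrations. Insufficient inhibition: endpoint recorded as highest concentration tested. Here, GI50 denotes the concentration required for 50% inhibition of growth. TGI denotes the concentration required for complete inhibition of growth.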
# Key:
# Experiment in all cases: NCI-60 cell line screen, 48 h
# SNB-19 CNS = test system: SNB-19 CNS
# LOX IMVI melanoma = test system: LOX IMVI melanoma
# OVCAR-4 ovarian = test system: OVCAR-4 ovarian
# KM12 colon = test system: KM12 colon
# IGROV1 ovarian = test system: IGROV1 ovarian
# SK-OV-3 ovarian = test system: SK-OV-3 ovarian
# HOP-62 NSCLC = test system: HOP-62 NSCLC
# A549 NSCLC = test system: A549 NSCLC
# COLO 205 colon = test system: COLO 205 colon
# SR leukemia = test system: SR leukemia
# HOP-92 NSCLC = test system: HOP-92 NSCLC
# NCI/ADR-RES ovarian = test system: NCI/ADR-RES ovarian
# HCT-116 colon = test system: HCT-116 colon
# U251 CNS = test system: U251 CNS
# SK-MEL-5 melanoma = test system: SK-MEL-5 melanoma
# CCRF-CEM leukemia = test system: CCRF-CEM leukemia
# OVCAR-8 ovarian = test system: OVCAR-8 ovarian
# ACHN renal = test system: ACHN renal
# HS 578T breast = test system: HS 578T breast
# TK-10 renal = test system: TK-10 renal
# EKVX NSCLC = test system: EKVX NSCLC
# NCI-H460 lung = test system: NCI-H460 lung
# SK-MEL-2 melanoma = test system: SK-MEL-2 melanoma
# UACC-257 melanoma = test system: UACC-257 melanoma
# HL-60(TB) leukemia = test system: HL-60(TB) leukemia
# A498 renal = test system: A498 renal
# NCI-H522 lung = test system: NCI-H522 lung
# HCC-2998 colon = test system: HCC-2998 colon
# HCT-15 colon = test system: HCT-15 colon
# BT-549 breast = test system: BT-549 breast
# SN12C renal = test system: SN12C renal
# HT29 colon = test system: HT29 colon
# NCI-H226 lung = test system: NCI-H226 lung
# M14 melanoma = test system: M14 melanoma
# MDA-MB-435 = test system: MDA-MB-435
# SNB-75 CNS = test system: SNB-75 CNS
# SF-268 CNS = test system: SF-268 CNS
# SW-620 colon = test system: SW-620 colon
# PC-3 prostate = test system: PC-3 prostate
# MOLT-4 leukemia = test system: MOLT-4 leukemia
# RPMI-8226 leukemia = test system: RPMI-8226 leukemia
# MDA-MB-231 breast = test system: MDA-MB-231 breast
# SF-539 CNS = test system: SF-539 CNS
# OVCAR-5 ovarian = test system: OVCAR-5 ovarian
# UACC-62 melanoma = test system: UACC-62 melanoma
# K-562 leukemia = test system: K-562 leukemia
# T-47D breast = test system: T-47D breast
# SK-MEL-28 melanoma = test system: SK-MEL-28 melanoma
# NCI-H23 lung = test system: NCI-H23 lung
# DU-145 prostate = test system: DU-145 prostate
# MCF7 breast = test system: MCF7 breast
# RXF 393 renal = test system: RXF 393 renal
# MALME-3M melanoma = test system: MALME-3M melanoma
# UO-31 renal = test system: UO-31 renal
# SF-295 CNS = test system: SF-295 CNS
# 786-0 renal = test system: 786-0 renal
# CAKI-1 renal = test system: CAKI-1 renal
smiles,measurement,setting,value
N#Cc1c(NC(=O)c2cccc(C(F)(F)F)c2F)sc2c1CCC(=O)C2,GI50,SNB-19 CNS,410 nM
same,TGI,SNB-19 CNS,15600 nM
same,GI50,LOX IMVI melanoma,311 nM
same,TGI,LOX IMVI melanoma,1180 nM
same,GI50,OVCAR-4 ovarian,393 nM
same,TGI,OVCAR-4 ovarian,1730 nM
same,GI50,KM12 colon,464 nM
same,TGI,KM12 colon,1980 nM
same,GI50,IGROV1 ovarian,490 nM
same,TGI,IGROV1 ovarian,2200 nM
same,GI50,SK-OV-3 ovarian,1960 nM
same,TGI,SK-OV-3 ovarian,6370 nM
same,GI50,HOP-62 NSCLC,782 nM
same,GI50,A549 NSCLC,1880 nM
same,TGI,A549 NSCLC,> 100000 nM
same,GI50,COLO 205 colon,210 nM
same,TGI,COLO 205 colon,437 nM
same,GI50,SR leukemia,76.1 nM
same,TGI,SR leukemia,> 100000 nM
same,GI50,HOP-92 NSCLC,243 nM
same,TGI,HOP-92 NSCLC,679 nM
same,GI50,NCI/ADR-RES ovarian,345 nM
same,TGI,NCI/ADR-RES ovarian,1820 nM
same,GI50,HCT-116 colon,124 nM
same,TGI,HCT-116 colon,1260 nM
same,GI50,U251 CNS,356 nM
same,TGI,U251 CNS,2240 nM
same,GI50,SK-MEL-5 melanoma,372 nM
same,TGI,SK-MEL-5 melanoma,1320 nM
same,GI50,CCRF-CEM leukemia,190 nM
same,TGI,CCRF-CEM leukemia,> 100000 nM
same,GI50,OVCAR-8 ovarian,356 nM
same,TGI,OVCAR-8 ovarian,> 100000 nM
same,GI50,ACHN renal,296 nM
same,TGI,ACHN renal,1010 nM
same,GI50,HS 578T breast,357 nM
same,TGI,HS 578T breast,2320 nM
same,GI50,TK-10 renal,330 nM
same,GI50,EKVX NSCLC,563 nM
same,TGI,EKVX NSCLC,4400 nM
same,GI50,NCI-H460 lung,549 nM
same,TGI,NCI-H460 lung,> 38900 nM
same,GI50,SK-MEL-2 melanoma,2150 nM
same,TGI,SK-MEL-2 melanoma,5330 nM
same,GI50,UACC-257 melanoma,624 nM
same,TGI,UACC-257 melanoma,3180 nM
same,GI50,HL-60(TB) leukemia,235 nM
same,TGI,HL-60(TB) leukemia,10900 nM
same,GI50,A498 renal,2190 nM
same,TGI,A498 renal,5930 nM
same,GI50,NCI-H522 lung,194 nM
same,TGI,NCI-H522 lung,719 nM
same,GI50,HCC-2998 colon,588 nM
same,TGI,HCC-2998 colon,2090 nM
same,GI50,HCT-15 colon,246 nM
same,TGI,HCT-15 colon,1140 nM
same,GI50,BT-549 breast,308 nM
same,TGI,BT-549 breast,1430 nM
same,GI50,SN12C renal,326 nM
same,TGI,SN12C renal,2220 nM
same,GI50,HT29 colon,226 nM
same,TGI,HT29 colon,1310 nM
same,GI50,NCI-H226 lung,487 nM
same,TGI,NCI-H226 lung,2570 nM
same,GI50,M14 melanoma,378 nM
same,TGI,M14 melanoma,2100 nM
same,GI50,MDA-MB-435,336 nM
same,TGI,MDA-MB-435,1400 nM
same,GI50,SNB-75 CNS,459 nM
same,TGI,SNB-75 CNS,3550 nM
same,GI50,SF-268 CNS,408 nM
same,TGI,SF-268 CNS,> 100000 nM
same,GI50,SW-620 colon,225 nM
same,TGI,SW-620 colon,1460 nM
same,GI50,PC-3 prostate,114 nM
same,TGI,PC-3 prostate,1480 nM
same,GI50,MOLT-4 leukemia,308 nM
same,TGI,MOLT-4 leukemia,> 37700 nM
same,GI50,RPMI-8226 leukemia,66.4 nM
same,GI50,MDA-MB-231 breast,356 nM
same,TGI,MDA-MB-231 breast,1350 nM
same,GI50,SF-539 CNS,244 nM
same,TGI,SF-539 CNS,800 nM
same,GI50,OVCAR-5 ovarian,392 nM
same,TGI,OVCAR-5 ovarian,1780 nM
same,GI50,UACC-62 melanoma,317 nM
same,TGI,UACC-62 melanoma,1330 nM
same,GI50,K-562 leukemia,112 nM
same,TGI,K-562 leukemia,> 100000 nM
same,GI50,T-47D breast,151 nM
same,TGI,T-47D breast,1650 nM
same,GI50,SK-MEL-28 melanoma,475 nM
same,TGI,SK-MEL-28 melanoma,1790 nM
same,GI50,NCI-H23 lung,337 nM
same,TGI,NCI-H23 lung,2070 nM
same,GI50,DU-145 prostate,1270 nM
same,TGI,DU-145 prostate,> 100000 nM
same,GI50,MCF7 breast,276 nM
same,TGI,MCF7 breast,> 23000 nM
same,GI50,RXF 393 renal,221 nM
same,TGI,RXF 393 renal,714 nM
same,GI50,MALME-3M melanoma,266 nM
same,TGI,MALME-3M melanoma,694 nM
same,GI50,UO-31 renal,220 nM
same,TGI,UO-31 renal,730 nM
same,GI50,SF-295 CNS,515 nM
same,TGI,SF-295 CNS,2420 nM
same,GI50,786-0 renal,444 nM
same,TGI,786-0 renal,> 47500 nM
same,GI50,CAKI-1 renal,221 nM
same,TGI,CAKI-1 renal,866 nM
